These results are taken from patent publication US5236918A, “6-aryl-3-cyanaminopyridazines, their preparation and use and medicaments containing them” (BYK Gulden Lomberg Chemische Fabrik GmbH, priority 1989, dated 1993).

The test system of test [1] is tracheal ring chain of the guinea-pig. As to the kind of experiment: bronchospasmolytic action on the tracheal ring chain of the guinea-pig in vitro (relaxation of stable tonic spontaneous contraction). In kind it is cell-based. As to conditions: for EC50: Cavia porcellus, EC50 in mol/l, 50% of the maximum relaxation achievable with (-)isoprenaline 10^-6 mol/l, spontaneous contraction, 37° C.; for [EC50]theophylline / [EC50]substance: quotient of EC50 values, theophylline = 1. As to the method:
The bronchospasmolytic action of the compounds on the tracheal ring chain of the guinea-pig was tested in vitro as follows: Four parallel tracheal ring chains, each consisting of 6 individual rings, of the guinea-pig (female and male, 430-600 g), in an organ bath [5 ml, Krebs-Henseleit solution with addition of phentolamine (10^-5 mol/l), 37° C., pretension of the organs 2 g, gassing with carbogen] develop a stable, tonic spontaneous contraction after about 20 to 30 minutes. Relaxation can be brought about on these permanently contracted organs under isometric measurement conditions by application of the test substance in a cumulatively semi-logarithmically increasing concentration (e.g. 1×10^-6 +2×10^-6 +7×10^-6 +2×10^-5etc. mol/l), a constant relaxation response being awaited after each individual dose of the test substance before the next higher concentration is applied. A complete dose/effect curve of the test substance is thus obtained over a period of 20 to 30 minutes. The particular relaxation is expressed as the percentage fraction of the maximum relaxation which can be achieved by addition of (-)isoprenaline (10^-6 mol/l).

In test [2] the test system is PDE IV. Briefly: inhibition of PDE IV from human neutrophilic polymorphonuclear cells (PMNs). Format: biochemical. Conditions: for [IC50]theophylline / [IC50]substance: PDE IV human PMNs, quotient of IC50 values, theophylline = 1; for -log[IC50] PDE IV PNMs: human neutrophilic polymorphonuclear cells, cAMP 0.5 μmol/l, 37° C., 20 minutes. The source says:
(§1) The inhibition of phosphodiesterases of classes III (PDE III=high-affinity cAMP-PDE which can be inhibited by cGMP) and IV (PDE IV=high-affinity cAMP-PDE which cannot be inhibited by cGMP, Rolipram-sensitive) is regarded as being particularly conclusive for a bronchospasmolytic and/or antiinflammatory action which may be expected [H. Hidaka et al., Adv. Cycl. Nucl. Res. 13, 145 (1984); Tips 5, 237 (1984); R. Weishaar et al., J. Med. Chem. 28, 537 (1985); S. A. Harrison et al., Molec. Pharmac. 29, 506 (1986); J. Klein-Tebbe et al., Allergologie 12, 12 (1989); C. Schudt et al., Allergologie 12, 12 (1989)].
(§2) The PDE inhibition of the compounds according to the invention was therefore determined on a PDE III isolated from human platelets and PDE IV isolated from human neutrophilic polymorphonuclear cells (PMNs) and from the canine trachea. The phosphodiesterases III and IV are isolated by chromatography by the method of Polson et al., Biochem. Pharmacol. 31, 3403-3406 (1982).
(§3) The substances are dissolved in DMSO and diluted further. From a series of solutions diluted up to a hundred-fold, 2.1 μl portions are taken and 212 μl reaction mixture are added. The reaction mixture contains Hepes (100 mmol/l), DTE (5 mmol/l), MgCl2 (5 mmol/l), CaCl2 (10 μmol/l), BSA fraction V 0.5 mg/ml, cAMP 0.5 μmol/l, 2,8-^3 H-cAMP 250,000 cpm/ml (0.3 μCi/ml, s.a. 33.5 μCi/mmol) and SV (snake venom) (25 μg/212 μl test batch).
(§4) The reaction is started by addition of 10 μl PDE to the reaction mixture and to the substance batch. The mixtures are then incubated at 37° C. for 20 minutes. The reaction is stopped by heating at 95° C. for 45 seconds. After the samples have cooled, the SV solution is added, the 5-AMP formed being cleaved. After incubation for 30 minutes at 37° C., this reaction is stopped by addition of 1 ml anion exchanger suspension. The cAMP which remains is thereby bonded. The adenosine formed remains in the supernatant after centrifugation and can be measured in an aliquot by the radioactivity contained therein.

Test [3] relates to acetylcholine-induced bronchospasm. As to the kind of experiment: protective action against acetylcholine-induced bronchospasm on the conscious guinea-pig. In kind it is in vivo. Conditions: Cavia porcellus, 0.5 h; verum, oral, 100 μmol/kg, 30 minutes after administration; protected = latency period at least three times; read-out: Number of animals protected/number of animals used (converted). The method, then: The bronchospasmolytic action was additionally tested on the model of "Protective action against acetylcholine-induced bronchospasm on the conscious guinea-pig":
Guinea-pigs (250-350 g) are exposed in a closed Plexiglas cylinder (volume 5 l) to an acetylcholine mist (0.06% in 0.9% sodium chloride solution; ultrasonic mister Heyer Use 77) twice before administration of the substance at an interval of 20 minutes, and 30 minutes after administration of the substance. The time from the start of misting to the onset of clear respiratory exertion (under certain circumstances hypoxic convulsions in the lateral position) is measured and defined as the latency period. A prolonging of the latency period after administration of the substance to at least three times the average latency period before administration of the substance is regarded as a protective action, and the number of protected animals in the group is stated. The test substances are administered orally by means of a stomach tube (dose 100 μmol/kg, volume 1 ml/kg, suspending agent 4% Methocel suspension in 0.9% sodium chloride solution).
The test substance is administered perorally by means of a stomach tube (standard dose 100 μmol, volume 1 ml 4% Methocel suspension in 0.9% sodium chloride solution/kg). After 30 minutes, the animals are exposed to the acetylcholine mist again and the latency periods are measured. Prolonging of the latency period to at least three times the length is regarded as a protective action.

Test [4] deals with T1, PDE III (Homo sapiens, UniProt Q14432).
T1 construct: PDE III isolated from human platelets; from tissue; host or cells: human platelets
T1 sequence (Q14432 whole entry): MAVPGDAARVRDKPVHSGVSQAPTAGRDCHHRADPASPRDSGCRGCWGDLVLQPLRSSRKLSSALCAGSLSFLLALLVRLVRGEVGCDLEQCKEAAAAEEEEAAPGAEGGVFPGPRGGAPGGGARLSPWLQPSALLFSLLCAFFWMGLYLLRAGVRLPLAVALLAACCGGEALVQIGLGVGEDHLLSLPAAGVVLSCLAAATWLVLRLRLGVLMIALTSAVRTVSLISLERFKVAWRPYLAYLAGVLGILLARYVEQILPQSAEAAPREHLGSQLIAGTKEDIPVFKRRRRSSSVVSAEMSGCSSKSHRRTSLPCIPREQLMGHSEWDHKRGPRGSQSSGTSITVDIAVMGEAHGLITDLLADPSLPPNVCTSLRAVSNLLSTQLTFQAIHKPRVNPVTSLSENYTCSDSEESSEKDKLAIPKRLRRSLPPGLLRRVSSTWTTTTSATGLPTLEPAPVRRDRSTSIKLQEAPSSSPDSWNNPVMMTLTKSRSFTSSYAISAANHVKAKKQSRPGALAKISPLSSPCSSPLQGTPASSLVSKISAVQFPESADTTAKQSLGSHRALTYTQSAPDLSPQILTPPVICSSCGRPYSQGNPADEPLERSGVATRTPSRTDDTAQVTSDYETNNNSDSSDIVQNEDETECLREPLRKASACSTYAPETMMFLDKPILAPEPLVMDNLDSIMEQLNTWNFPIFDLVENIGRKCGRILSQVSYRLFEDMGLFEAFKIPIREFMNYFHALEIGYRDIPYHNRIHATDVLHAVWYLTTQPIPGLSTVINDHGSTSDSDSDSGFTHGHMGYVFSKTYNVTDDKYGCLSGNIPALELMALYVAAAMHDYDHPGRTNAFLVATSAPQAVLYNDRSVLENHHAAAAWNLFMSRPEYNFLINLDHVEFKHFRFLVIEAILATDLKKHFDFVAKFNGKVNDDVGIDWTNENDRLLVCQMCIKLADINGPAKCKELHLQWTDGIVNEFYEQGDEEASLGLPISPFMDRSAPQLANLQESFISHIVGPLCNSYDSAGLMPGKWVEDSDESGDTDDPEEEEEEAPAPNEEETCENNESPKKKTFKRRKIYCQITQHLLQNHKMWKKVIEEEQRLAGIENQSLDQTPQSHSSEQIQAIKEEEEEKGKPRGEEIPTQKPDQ
As to the kind of experiment: inhibition of PDE III isolated from human platelets. In kind it is biochemical. Conditions: for [IC50]theophylline / [IC50]substance: PDE III, quotient of IC50 values, theophylline = 1; for IC50: human platelets, cAMP 0.5 μmol/l, 37° C., 20 minutes, read-out: -log[IC50] PDE III (converted).
From the text: as §1, §2, §3, §4

In test [5] the test system is PDE IV. Briefly: inhibition of PDE IV from the canine trachea. Format: biochemical. As to conditions: for [IC50]theophylline / [IC50]substance: PDE IV canine trachea, quotient of IC50 values, theophylline = 1; for -log[IC50] PDE IV canine trachea: cAMP 0.5 μmol/l, 37° C., 20 minutes.
From the text: as §1, §2, §3, §4

What is called EC50 is the concentration at which the effect is half-maximal. A high value points to a need for much substance. Regarding `CCOc1ccc(-c2ccc(NC#N)nn2)cc1OC(F)F` [Compound 14, 3-Cyanamino-6-(3-difluoromethoxy-4-ethoxyphenyl)pyridazine], in test [1], the EC50 is 2.04 µM and the “[EC50]theophylline / [EC50]substance” value was 66.1. In addition, in test [2], the “[IC50]theophylline / [IC50]substance” value came out at 85.1 and the “-log[IC50] PDE IV PNMs” value is 5.69.
Turning to `N#CNc1ccc(-c2ccc(OC(F)F)c(OCC3CC3)c2)nn1` [Compound 18, 3-Cyanamino-6-(3-cyclopropylmethoxy-4-difluoromethoxyphenyl)pyridazine], the responders at 100 µmol/kg in test [3] was 50%. For the same compound, in test [1], the EC50 is 0.562 µM and the “[EC50]theophylline / [EC50]substance” value was found to be 240. In addition, in test [2], the “[IC50]theophylline / [IC50]substance” value amounted to 759 and the “-log[IC50] PDE IV PNMs” value worked out at 6.64.
On to `N#CNc1ccc(-c2ccc(OCC3CC3)c(OC(F)F)c2)nn1` [Compound 21, 3-Cyanamino-6-(4-cyclopropylmethoxy-3-difluoromethoxyphenyl)pyridazine], for which, in test [1], the EC50 is 1 µM and the “[EC50]theophylline / [EC50]substance” value worked out at 135.
By IC50 is commonly meant the concentration that gives 50% inhibition. Regarding `CCOc1ccc(-c2ccc(NC#N)nn2)cc1OC` [Compound 7, 3-Cyanamino-6-(4-ethoxy-3-methoxyphenyl)pyridazine], in test [4], the “[IC50]theophylline / [IC50]substance” value was determined as 18.2 and the IC50 is 8.91 µM. In addition, in test [1], the EC50 was 6.46 µM and the “[EC50]theophylline / [EC50]substance” value came to 20.9. In test [5], the “[IC50]theophylline / [IC50]substance” value is on record as 32.4 and the “-log[IC50] PDE IV canine trachea” value is listed as 5.32.
Regarding `COc1ccc(-c2ccc(NC#N)nn2)cc1OC(F)F` [Compound 9, 3-Cyanamino-6-(3-difluoromethoxy-4-methoxyphenyl)pyridazine], in test [4], the “[IC50]theophylline / [IC50]substance” value is on record as 13.2 and the IC50 was 12.3 µM. Also, in test [1], the EC50 is 2.34 µM and the “[EC50]theophylline / [EC50]substance” value is given as 57.6. Moreover, in test [5], the “[IC50]theophylline / [IC50]substance” value is 69.2 and the “-log[IC50] PDE IV canine trachea” value stood at 5.65.
On to `COc1cc(-c2ccc(NC#N)nn2)ccc1OC(F)F` [Compound 8, 3-Cyanamino-6-(4-difluoromethoxy-3-methoxyphenyl)pyridazine], for which, in test [1], the response was half-maximal at 1.86 µM (EC50) and the “[EC50]theophylline / [EC50]substance” value was 72.5. In test [5], the “[IC50]theophylline / [IC50]substance” value amounted to 70.8 and the “-log[IC50] PDE IV canine trachea” value is 5.66.
In the case of `COc1ccc(-c2ccc(NC#N)nn2)cc1OC1CCCC1` [Compound 11, 3-Cyanamino-6-(3-cyclopentyloxy-4-methoxyphenyl)pyridazine], in test [1], the EC50 is 0.562 µM and the “[EC50]theophylline / [EC50]substance” value was 240. In test [5], the “[IC50]theophylline / [IC50]substance” value turned out to be 120 and the “-log[IC50] PDE IV canine trachea” value is 5.89. In test [2], the “[IC50]theophylline / [IC50]substance” value is 288 and the “-log[IC50] PDE IV PNMs” value was found to be 6.22.
Turning to `COc1ccc(-c2ccc(NC#N)nn2)cc1OCC1CCC1` [Compound 15, 3-Cyanamino-6-(3-cyclobutylmethoxy-4-methoxyphenyl)pyridazine], in test [1], the EC50 was 0.912 µM and the “[EC50]theophylline / [EC50]substance” value is on record as 148. In test [5], the “[IC50]theophylline / [IC50]substance” value was 77.7 and the “-log[IC50] PDE IV canine trachea” value turned out to be 5.70.
For the compound `N#CNc1ccc(-c2ccc(OC(F)F)c(OC3CCCC3)c2)nn1` [Compound 17, 3-Cyanamino-6-(3-cyclopentyloxy-4-difluoromethoxyphenyl)pyridazine], in test [1], it took 0.759 µM to reach a half-maximal effect (EC50) and the “[EC50]theophylline / [EC50]substance” value stood at 178. Further, in test [2], the “[IC50]theophylline / [IC50]substance” value was 513 and the “-log[IC50] PDE IV PNMs” value was found to be 6.47.
As to `COc1cc(-c2ccc(NC#N)nn2)ccc1OCC(C)C` [Compound 5, 3-Cyanamino-6-[3-methoxy-4-(2-methylpropoxy)phenyl]pyridazine], in test [1], it took 3.55 µM to reach a half-maximal effect (EC50) and the “[EC50]theophylline / [EC50]substance” value is recorded as 38.1.
`N#CNc1ccc(-c2ccc(OC(F)F)c(OCC(F)(F)F)c2)nn1` [Compound 20, 3-Cyanamino-6-[4-difluoromethoxy-3-(2,2,2-trifluoroethoxy)phenyl] pyridazine]: in test [3], the responders at 100 µmol/kg is 55%. Moreover, in test [1], a half-maximal effect (EC50) was put at 2.29 µM and the “[EC50]theophylline / [EC50]substance” value amounted to 58.9. Further, in test [2], the “[IC50]theophylline / [IC50]substance” value turned out to be 148 and the “-log[IC50] PDE IV PNMs” value was found to be 5.93.
As to `CCOc1cc(-c2ccc(NC#N)nn2)ccc1OC` [Compound 2, 3-Cyanamino-6-(3-ethoxy-4-methoxyphenyl)pyridazine], in test [4], the “[IC50]theophylline / [IC50]substance” value came to 15.5 and the IC50 was 10.5 µM. Besides, in test [1], the response was half-maximal at 3.02 µM (EC50) and the “[EC50]theophylline / [EC50]substance” value was found to be 44.7. In addition, in test [5], the “[IC50]theophylline / [IC50]substance” value is 95.6 and the “-log[IC50] PDE IV canine trachea” value was 5.79.
As for `CC(C)COc1cc(-c2ccc(NC#N)nn2)ccc1OC(F)F` [Compound 19, 3-Cyanamino-6-[4-difluoromethoxy-3-(2-methylpropoxy)phenyl]pyridazine], in test [1], a half-maximal effect (EC50) was put at 1.41 µM and the “[EC50]theophylline / [EC50]substance” value amounted to 95.6. Moreover, in test [2], the “[IC50]theophylline / [IC50]substance” value stood at 525 and the “-log[IC50] PDE IV PNMs” value was 6.48.
As for `CCCOc1ccc(-c2ccc(NC#N)nn2)cc1OC` [Compound 1, 3-Cyanamino-6-(3-methoxy-4-n-propoxyphenyl)pyridazine], in test [1], the EC50 is 5.62 µM and the “[EC50]theophylline / [EC50]substance” value turned out to be 24.0.
With `COc1ccc(-c2ccc(NC#N)nn2)cc1OC` [Compound 10, 3-Cyanamino-6-(3,4-dimethoxyphenyl)pyridazine], in test [4], the “[IC50]theophylline / [IC50]substance” value is 15.1 and the IC50 is 10.7 µM. In test [1], the EC50 was 7.08 µM and the “[EC50]theophylline / [EC50]substance” value came out at 19.1. Besides, in test [5], the “[IC50]theophylline / [IC50]substance” value is listed as 74.1 and the “-log[IC50] PDE IV canine trachea” value is recorded as 5.68.
Turning to `COc1cc(-c2ccc(NC#N)nn2)ccc1OC(C)C` [Compound 6, 3-Cyanamino-6-[3-methoxy-4-(1-methylethoxy)phenyl]pyridazine], in test [4], the “[IC50]theophylline / [IC50]substance” value was 25.7 and the IC50 was 6.31 µM. Also, in test [1], the EC50 was 8.13 µM and the “[EC50]theophylline / [EC50]substance” value amounted to 16.6.
